Source: PMC3209665 (Chemical biology & drug design, 2009)

Test: Solubility in ITC buffer
Assay type: physicochemical
Conditions: 10 mM sodium acetate, pH 5.0, 2% DMSO

## KNI-10006
  solubility: limited solubility
